Converted amounts (≈) assume the structure as drawn. Like-named read-outs stand apart in the source and are kept apart here.

One data set concerns S. Aureus 126. Nature of the data set: Antibacterial activity test, MIC by two-fold dilution method. The data set is classed as cell-based, Staphylococcus aureus (methicillin-resistant, MRSA). The note with it: Staphylococcus aureus, read-out: Minimum Inhibition Concentration. How it is done:
(§1) The measurement was carried out in the following manner: 10^6 CFU/ml of a bacterium to be tested was inoculated on a Medium N for disc susceptibility test (manufactured by Nissui Pharmaceutical Co., Ltd.), and cultivated at 35° C. for 18 to 20 hours.

In another data set the test system is S. Aureus 133. The description is as above. The data set is classed as cell-based, Staphylococcus aureus (methicillin-resistant, MRSA). The note with it: Staphylococcus aureus, read-out: Minimum Inhibition Concentration. How it is done: as §1
A further data set relates to S. Aureus 209P JC-1. Described as above. It is filed as cell-based. As to conditions: Staphylococcus aureus; S. Aureus 209P JC-1; 10^6 CFU/ml, 35° C., 18 to 20 hours; read-out: Minimum Inhibition Concentration. Here is the method:
as §1

The next data set has as its system P. aeruginosa GN10362. Described as above. The data set is classed as cell-based. As to conditions: Pseudomonas aeruginosa, GN10362, read-out: Minimum Inhibition Concentration. Here is the method: as §1
The test system of the next data set is M. morganii 1510/S-1. The description is as above. It is filed as cell-based. As to conditions: Morganella morganii, 1510/S1; M. morganii 1510/S-1; 10^6 CFU/ml, 35° C., 18 to 20 hours; read-out: Minimum Inhibition Concentration. How it is done: as §1
The test system of the next data set is C. freundii GN346/16. Described as above. It is filed as cell-based. The note with it: Citrobacter freundii; C. freundii GN346/16; 10^6 CFU/ml, 35° C., 18 to 20 hours; read-out: Minimum Inhibition Concentration. How it is done: as §1
A further data set relates to S. marcescens No. 1. Described as above. The data set is classed as cell-based. As to conditions: Serratia marcescens; S. marcescens No. 1; 10^6 CFU/ml, 35° C., 18 to 20 hours; read-out: Minimum Inhibition Concentration. How it is done: as §1
The test system of another data set is E. cloacae G-0008. Described as above. It is filed as cell-based. The note with it: Enterobacter cloacae, G0008; E. cloacae G-0008; 10^6 CFU/ml, 35° C., 18 to 20 hours; read-out: Minimum Inhibition Concentration. Here is the method:
as §1

Another data set has as its system P. vulgaris GN76. The data set is described as above. The data set is classed as cell-based. The note with it: Proteus vulgaris. Here is the method:
as §1

Another data set has as its system S. epidermidis ATCC14990. Described as above. It is filed as cell-based. As to conditions: Staphylococcus epidermidis; S. epidermidis ATCC14990; 10^6 CFU/ml, 35° C., 18 to 20 hours; read-out: Minimum Inhibition Concentration. How it is done: as §1
A further data set deals with K. pneumoniae PC1602. Described as above. It is filed as cell-based. The note with it: Klebsiella pneumoniae; K. pneumoniae PC1602; 10^6 CFU/ml, 35° C., 18 to 20 hours; read-out: Minimum Inhibition Concentration. How it is done:
as §1

Another data set relates to P. aeruginosa E-2. The description is as above. As to conditions: Pseudomonas aeruginosa, E2, read-out: Minimum Inhibition Concentration. The data set is classed as cell-based. Here is the method: as §1
The test system of the next data set is E. coli NIHJ JC-2. The description is as above. The note with it: Escherichia coli, NIHJJC2; E. coli NIHJ JC-2; 10^6 CFU/ml, 35° C., 18 to 20 hours; read-out: Minimum Inhibition Concentration. It is filed as cell-based. How it is done: as §1
A further data set concerns ICR mice. Nature of the data set: Acute toxicity test in ICR mice. It is filed as in vivo. Here is the method: (§2) 0.5 ml of a pharmaceutical solution prepared by dissolving a compound of the present invention in a physiological saline solution for injection (80 mg/ml) was injected to the caudal veins of ICR mice (4 weeks old, male, body weight: approx. 20 g). Two weeks after the administration, the mice were observed whether they were dead or not. […] Therefore, the LD50 of this compound is >2 g/kg (>40 mg/mouse).

Data set [1] can be described thus: Acute toxicity test in ICR mice. It is filed as in vivo. As to conditions: mouse, in vivo, iv. Here is the method: as §2

For `CO/N=C(\C(=O)N[C@@H]1C(=O)N2C(C(=O)[O-])=C(C[n+]3cc4scc(C(N)=O)n4c3)CS[C@H]12)c1nsc(N)n1` [Example 44, (6R,7R)-7-[(Z)-2-(5-Amino-1,2,4-thiadiazol-3-yl)-2-methoxyiminoacetamide]-3-(3-carbamoylimidazo[5,1-b]thiazolium-6-yl)methyl-3-cephem-4-carboxylate], the MIC in the data set with S. Aureus 126 (S. Aureus 126 (MRSA), 10^6 CFU/ml, 35° C., 18 to 20 hours) is 25 µg/mL (≈ 44.4 µM); in the data set with S. Aureus 133 (S. Aureus 133 (MRSA), 10^6 CFU/ml, 35° C., 18 to 20 hours), 12.5 µg/mL (≈ 22.2 µM); in the data set on S. Aureus 209P JC-1, 0.78 µg/mL (≈ 1.38 µM); in the data set on P. aeruginosa GN10362 it was 1.56 µg/mL (≈ 2.77 µM); in the data set with M. morganii 1510/S-1, 0.05 µg/mL (≈ 0.0887 µM); with C. freundii GN346/16, 0.1 µg/mL (≈ 0.177 µM). Also, the MIC is 0.05 µg/mL (≈ 0.0887 µM) in the data set on S. marcescens No. 1; 0.05 µg/mL (≈ 0.0887 µM) in the data set with E. cloacae G-0008; 0.2 µg/mL (≈ 0.355 µM) in the data set with P. vulgaris GN76 (P. vulgaris GN76, 10^6 CFU/ml, 35° C., 18 to 20 hours, read-out: Minimum Inhibition Concentration); 0.78 µg/mL (≈ 1.38 µM) in the data set on S. epidermidis ATCC14990; no more than 0.025 µg/mL in the data set with K. pneumoniae PC1602; 1.56 µg/mL (≈ 2.77 µM) in the data set on P. aeruginosa E-2. Further, the MIC in the data set with E. coli NIHJ JC-2 was no more than 0.025 µg/mL.

Regarding `CCO/N=C(\C(=O)N[C@@H]1C(=O)N2C(C(=O)[O-])=C(C[n+]3cc4sccn4c3CNC=O)CS[C@H]12)c1nsc(N)n1` [Example 49, (6R,7R)-7-[(Z)-2-(5-Amino-1,2,4-thiadiazol-3-yl)-2-ethoxyiminoacetamide]-3-[5-(formylamino)methylimidazo[5,1-b]thiazolium-6-yl]methyl-3-cephem-4-carboxylate], the MIC in the data set with S. Aureus 126 (MRSA) was 6.25 µg/mL (≈ 10.6 µM); with S. Aureus 133 (MRSA) it was 6.25 µg/mL (≈ 10.6 µM); with S. Aureus 209P JC-1, 0.78 µg/mL (≈ 1.32 µM); in the data set on P. aeruginosa GN10362, 1.56 µg/mL (≈ 2.64 µM); in the data set on M. morganii 1510/S-1, no more than 0.025 µg/mL; with C. freundii GN346/16, 0.05 µg/mL (≈ 0.0845 µM). The MIC in the data set on S. marcescens No. 1 amounted to 0.1 µg/mL (≈ 0.169 µM); in the data set with E. cloacae G-0008, 0.05 µg/mL (≈ 0.0845 µM); in the data set on P. vulgaris GN76 (GN76, read-out: Minimum Inhibition Concentration), 0.39 µg/mL (≈ 0.659 µM); in the data set with S. epidermidis ATCC14990 it was 0.78 µg/mL (≈ 1.32 µM); in the data set on K. pneumoniae PC1602, 0.05 µg/mL (≈ 0.0845 µM); in the data set on P. aeruginosa E-2, 1.56 µg/mL (≈ 2.64 µM). Besides, the MIC with E. coli NIHJ JC-2 amounted to 0.05 µg/mL (≈ 0.0845 µM). The “survival two weeks after administration” value with ICR mice (ICR mice, 0.5 ml of 80 mg/ml solution, caudal vein, 3 cases) is listed as “all (3 cases) alive”. For the same molecule, the LD50 with ICR mice (mouse, in vivo) was greater than 40 mg/mouse. Besides, the LD50 at 336 h in data set [1] was greater than 2000 mg/kg.
